Assay: xn = mol fraction of the nth substance listed

ClCCl + C1CCOC1
298 K, 101 kPa
Details	viscosity [mPa·s]
x1 = 0.0981	0.455
x1 = 0.2079	0.454
x1 = 0.3064	0.453
x1 = 0.3509	0.452
x1 = 0.4032	0.451
x1 = 0.4519	0.45
x1 = 0.4994	0.449
x1 = 0.5531	0.447
x1 = 0.5994	0.445
x1 = 0.6477	0.443
x1 = 0.6696	0.441
x1 = 0.7756	0.437
x1 = 0.7999	0.435
x1 = 0.9011	0.428

ClCCl + CC(=O)c1ccccc1
298.15 K, 101 kPa
Details	viscosity [mPa·s]
x2 = 0.0728	0.5046
x2 = 0.1501	0.5598
x2 = 0.2324	0.6209
x2 = 0.3201	0.6967
x2 = 0.4139	0.7804
x2 = 0.5144	0.8931
x2 = 0.6224	1.036
x2 = 0.7386	1.212
x2 = 0.8641	1.422

ClCCl + Cc1ccccc1
101 kPa
Details	viscosity [mPa·s]
293.15 K, x1 = 0.1635	0.564
293.15 K, x1 = 0.3002	0.543
293.15 K, x1 = 0.4025	0.528
293.15 K, x1 = 0.4771	0.517
293.15 K, x1 = 0.5025	0.511
293.15 K, x1 = 0.5801	0.498
293.15 K, x1 = 0.5919	0.496
293.15 K, x1 = 0.675	0.479
293.15 K, x1 = 0.7431	0.468
293.15 K, x1 = 0.788	0.465
298.15 K, x1 = 0.2198	0.525
298.15 K, x1 = 0.3271	0.51
298.15 K, x1 = 0.4201	0.497
298.15 K, x1 = 0.5108	0.48
298.15 K, x1 = 0.5701	0.472
298.15 K, x1 = 0.6325	0.462
298.15 K, x1 = 0.6841	0.455
298.15 K, x1 = 0.7201	0.45
298.15 K, x1 = 0.7501	0.447
303.15 K, x1 = 0.218	0.497
303.15 K, x1 = 0.3331	0.481
303.15 K, x1 = 0.4402	0.467
303.15 K, x1 = 0.5223	0.45
303.15 K, x1 = 0.6191	0.436
303.15 K, x1 = 0.694	0.424
303.15 K, x1 = 0.7651	0.415
303.15 K, x1 = 0.8053	0.412

CC(=O)O + C1CCCCC1
303.15 K, 101 kPa
Details	viscosity [mPa·s]
x2 = 0.09517	0.8375
x2 = 0.1912	0.747
x2 = 0.2978	0.6933
x2 = 0.5005	0.6661
x2 = 0.5952	0.6798
x2 = 0.6982	0.6567
x2 = 0.8007	0.6847
x2 = 0.9035	0.7306

C1CCCCCC1 + C1CCCCC1
303.15 K, 101 kPa
Details	viscosity [mPa·s]
x2 = 0.1425	1.16
x2 = 0.2998	1.085
x2 = 0.4978	1.003
x2 = 0.6947	0.9296
x2 = 0.8482	0.8767

ClCCl + CC(C)=O
viscosity [mPa·s], 101 kPa
Details	x2 = 0.0866	x2 = 0.186	x2 = 0.3088	x2 = 0.3898	x2 = 0.4934	x2 = 0.5941	x2 = 0.6959	x2 = 0.8096	x2 = 0.899
293.15 K	0.439	0.436	0.423	0.412	0.4	0.388	0.374	0.358	0.339
298.15 K	0.422	0.417	0.405	0.396	0.383	0.37	0.357	0.343	0.327

CCOC=O + c1ccccc1
viscosity [mPa·s], 101 kPa
Details	x1 = 0.2	x1 = 0.4	x1 = 0.5	x1 = 0.8
293.15 K	0.558	0.501	0.482	0.435
303.15 K	0.491	0.446	0.43	0.391
308.15 K	0.465	0.427	0.409	0.373

CCC[N+](C)(C)C.O=S(=O)([N-]S(=O)(=O)C(F)(F)F)C(F)(F)F + CCC[N+]1(C)CCCC1.O=S(=O)([N-]S(=O)(=O)C(F)(F)F)C(F)(F)F
viscosity [mPa·s], 101.3 kPa
Details	x1 = 0.2	x1 = 0.4	x1 = 0.6	x1 = 0.8
293.15 K	78.4	81.2	88.3	93.6
298.15 K	62.8	64.9	–	73.8
303.15 K	51.1	52.5	56.3	59.2

C[Si]1(C)O[Si](C)(C)O[Si](C)(C)O[Si](C)(C)O1 + ClC(Cl)(Cl)Cl
101 kPa
Details	viscosity [mPa·s]
298.15 K, x1 = 0.1089	1.044
298.15 K, x1 = 0.1965	1.14
298.15 K, x1 = 0.289	1.245
298.15 K, x1 = 0.4288	1.407
298.15 K, x1 = 0.5841	1.595
298.15 K, x1 = 0.659	1.694
298.15 K, x1 = 0.8443	1.95
298.15 K, x1 = 0.9264	2.073
298.15 K, x1 = 0.9773	2.147
308.15 K, x1 = 0.1756	0.964
308.15 K, x1 = 0.3239	1.101
308.15 K, x1 = 0.5732	1.339
308.15 K, x1 = 0.729	1.493
308.15 K, x1 = 0.8636	1.646
308.15 K, x2 = 0.0183	1.786
318.15 K, x1 = 0.1779	0.844
318.15 K, x1 = 0.3249	0.956
318.15 K, x1 = 0.5816	1.148
318.15 K, x1 = 0.7307	1.27
318.15 K, x1 = 0.8652	1.388
318.15 K, x2 = 0.0179	1.498

ClCCCl + CO
viscosity [mPa·s], 101 kPa
Details	x2 = 0.1568	x2 = 0.2369	x2 = 0.4217	x2 = 0.5374	x2 = 0.6221	x2 = 0.6906	x2 = 0.7982	x2 = 0.8393	x2 = 0.912
303.15 K	0.6585	0.6407	0.6125	0.6032	0.5936	0.5824	0.5696	0.5617	0.5488
313.15 K	0.5772	0.5596	0.5318	0.5227	0.5094	0.5005	0.4915	0.4852	0.4762
323.15 K	0.5169	0.499	0.4709	0.4587	0.4506	0.4422	0.4323	0.4255	0.4199

CC(C)C[C@H](NC(=O)[C@H](C)N)C(=O)O + O
viscosity [mPa·s], 101 kPa
Details	x1 = 3.33e-05	x1 = 7.01e-05	x1 = 0.000104	x1 = 0.000146	x1 = 0.000174	x1 = 0.0002197	x1 = 0.0002561	x1 = 0.0002862	x1 = 0.0003157	x1 = 0.0003701
305.15 K	0.7759	0.7781	0.7785	0.7806	0.7826	0.7869	0.796	0.8042	0.8098	0.8149
310.15 K	0.7079	0.7086	0.7126	0.7129	0.7165	0.7198	0.7242	0.7292	0.7334	0.7359
315.15 K	0.6492	0.6505	0.6525	0.6559	0.6596	0.6605	0.6629	0.6678	0.6692	0.6709

CC1CCCC(C)C1=O (centres undefined) + COc1ccccc1N
viscosity [mPa·s], 100 kPa
Details	x2 = 0.0997	x2 = 0.1852	x2 = 0.2554	x2 = 0.3527	x2 = 0.4551	x2 = 0.5424	x2 = 0.6519	x2 = 0.7414	x2 = 0.8479
303.15 K	3.865	3.998	4.106	4.247	4.383	4.491	4.612	4.701	4.797
308.15 K	3.412	3.557	3.673	3.825	3.972	4.09	4.227	4.325	4.435
313.15 K	2.958	3.116	3.239	3.401	3.56	3.687	3.84	3.948	4.071
